Where two headings read alike, the source gives them in different places.
Legend:
Smo = conditions: preclinical pancreatic cancer models; cited from earlier work
Panc163 = Panc163 PDAC subcutaneous xenograft model; type: in vivo, mice; conditions: Panc 163, nab-paclitaxel 50 mg/kg 1dq4×3, TAK-441 25 mg/kg daily p.o.
Experimental: (§1) After several dose-finding studies to define the most feasible dose of nab-paclitaxel, a dose of 50 mg/kg 1dq4×3 was used. TAK-441 was selected and administered daily at the recommended dose (25 mg/kg daily p.o.). The study was conducted for 21 days. Based on the tumor volume values on experimental day 21, it was estimated the Tumor Growth Inhibition (TGI) factor as indicated in the Table 1. […] In order to evaluate the histological status of the stroma after treatment, Masson's Trichrome stained slides from Panc 163 and Panc 025 models were analyzed.

JH051 = JH051 PDAC subcutaneous xenograft model; type: in vivo, mice; conditions: JH 051, nab-paclitaxel 50 mg/kg 1dq4×3, TAK-441 25 mg/kg daily p.o.
Experimental: After several dose-finding studies to define the most feasible dose of nab-paclitaxel, a dose of 50 mg/kg 1dq4×3 was used. TAK-441 was selected and administered daily at the recommended dose (25 mg/kg daily p.o.). The study was conducted for 21 days. Based on the tumor volume values on experimental day 21, it was estimated the Tumor Growth Inhibition (TGI) factor as indicated in the Table 1.

Panc025 = Panc025 PDAC subcutaneous xenograft model; type: in vivo, mice; conditions: Panc 025, nab-paclitaxel 50 mg/kg 1dq4×3, TAK-441 25 mg/kg daily p.o.
Experimental: as §1

human Smo (hSmo) = biological target: T1, human Smo (hSmo) (Homo sapiens, UniProt Q99835); conditions: 293T cells overexpressing hSmo; read-out: IC50, inhibition of cyclopamine binding to human Smo; cited from earlier work
T1 construct: expressed in transfected cells; host or cells: 293T cells
T1 sequence (Q99835 28-787): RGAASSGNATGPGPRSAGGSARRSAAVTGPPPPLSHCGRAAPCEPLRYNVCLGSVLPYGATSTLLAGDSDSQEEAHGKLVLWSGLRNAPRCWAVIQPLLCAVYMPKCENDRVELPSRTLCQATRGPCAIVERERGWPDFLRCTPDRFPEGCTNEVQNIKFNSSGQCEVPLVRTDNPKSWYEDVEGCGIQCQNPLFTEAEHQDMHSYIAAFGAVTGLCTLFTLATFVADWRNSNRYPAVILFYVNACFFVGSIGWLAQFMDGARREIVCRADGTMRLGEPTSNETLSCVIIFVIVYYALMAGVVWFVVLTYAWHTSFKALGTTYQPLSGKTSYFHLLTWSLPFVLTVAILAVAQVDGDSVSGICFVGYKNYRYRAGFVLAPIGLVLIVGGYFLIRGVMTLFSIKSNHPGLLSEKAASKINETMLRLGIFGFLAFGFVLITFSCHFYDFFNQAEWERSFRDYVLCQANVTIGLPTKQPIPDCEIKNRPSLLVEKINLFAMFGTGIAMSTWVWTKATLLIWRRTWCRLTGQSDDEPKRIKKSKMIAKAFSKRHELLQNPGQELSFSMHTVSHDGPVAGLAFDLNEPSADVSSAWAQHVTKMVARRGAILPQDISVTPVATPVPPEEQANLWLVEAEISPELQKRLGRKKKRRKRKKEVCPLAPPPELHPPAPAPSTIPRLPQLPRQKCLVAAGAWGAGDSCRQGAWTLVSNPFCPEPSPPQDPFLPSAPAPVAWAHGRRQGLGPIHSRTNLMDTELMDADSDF

[1] = test system: Gli transcriptional activity; conditions: Gli-luc NIH3T3 cells; cited from earlier work
Gli1 mRNA = conditions: MRC5 human embryonic fibroblasts; read-out: IC50, expression of Gli1 mRNA; cited from earlier work
[2] = test system: medulloblastoma allograft; conditions: cited from earlier work
[3] = test system: PAN-04 primary human pancreas xenograft; conditions: PAN-04 xenograft, cited from earlier work
[4] = test system: castration-resistant prostate cancer; conditions: murine castration-resistant prostate cancer models; cited from earlier work
[5] = rats; cited from earlier work
[6] = cited from earlier work
[7] = design: dose or concentration left out as unconfirmed; conditions: mice; cited from earlier work
[8] = design: dose or concentration left out as unconfirmed; conditions: rats; cited from earlier work
[9] = design: dose or concentration left out as unconfirmed; conditions: dogs; cited from earlier work
[10] = design: dose or concentration left out as unconfirmed; conditions: human beings; cited from earlier work
CYP2C8 = biological target: T2, CYP2C8 (Homo sapiens, UniProt P10632); conditions: cited from earlier work
T2 sequence (P10632 1-490): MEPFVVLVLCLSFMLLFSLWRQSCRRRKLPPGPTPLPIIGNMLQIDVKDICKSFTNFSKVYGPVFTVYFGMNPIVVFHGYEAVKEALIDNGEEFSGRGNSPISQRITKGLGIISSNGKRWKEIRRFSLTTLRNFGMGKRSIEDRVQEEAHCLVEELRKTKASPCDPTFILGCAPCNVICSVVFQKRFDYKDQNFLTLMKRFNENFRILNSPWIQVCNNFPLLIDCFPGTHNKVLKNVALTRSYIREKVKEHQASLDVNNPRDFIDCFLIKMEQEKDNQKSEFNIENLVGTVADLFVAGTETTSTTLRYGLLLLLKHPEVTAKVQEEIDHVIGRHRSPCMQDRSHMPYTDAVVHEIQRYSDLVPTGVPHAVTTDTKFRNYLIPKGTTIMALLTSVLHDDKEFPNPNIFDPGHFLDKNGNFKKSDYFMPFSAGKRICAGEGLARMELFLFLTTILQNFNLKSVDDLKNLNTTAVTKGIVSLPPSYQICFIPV

CYP isozymes = conditions: cited from earlier work
Caco-2 cells = conditions: cited from earlier work
P-glycoprotein (P-gp) = biological target: T3, P-glycoprotein (P-gp) (Homo sapiens, UniProt P08183); conditions: cited from earlier work
T3 construct: endogenous in cells; host or cells: Caco-2 cells
T3 sequence (P08183 whole entry): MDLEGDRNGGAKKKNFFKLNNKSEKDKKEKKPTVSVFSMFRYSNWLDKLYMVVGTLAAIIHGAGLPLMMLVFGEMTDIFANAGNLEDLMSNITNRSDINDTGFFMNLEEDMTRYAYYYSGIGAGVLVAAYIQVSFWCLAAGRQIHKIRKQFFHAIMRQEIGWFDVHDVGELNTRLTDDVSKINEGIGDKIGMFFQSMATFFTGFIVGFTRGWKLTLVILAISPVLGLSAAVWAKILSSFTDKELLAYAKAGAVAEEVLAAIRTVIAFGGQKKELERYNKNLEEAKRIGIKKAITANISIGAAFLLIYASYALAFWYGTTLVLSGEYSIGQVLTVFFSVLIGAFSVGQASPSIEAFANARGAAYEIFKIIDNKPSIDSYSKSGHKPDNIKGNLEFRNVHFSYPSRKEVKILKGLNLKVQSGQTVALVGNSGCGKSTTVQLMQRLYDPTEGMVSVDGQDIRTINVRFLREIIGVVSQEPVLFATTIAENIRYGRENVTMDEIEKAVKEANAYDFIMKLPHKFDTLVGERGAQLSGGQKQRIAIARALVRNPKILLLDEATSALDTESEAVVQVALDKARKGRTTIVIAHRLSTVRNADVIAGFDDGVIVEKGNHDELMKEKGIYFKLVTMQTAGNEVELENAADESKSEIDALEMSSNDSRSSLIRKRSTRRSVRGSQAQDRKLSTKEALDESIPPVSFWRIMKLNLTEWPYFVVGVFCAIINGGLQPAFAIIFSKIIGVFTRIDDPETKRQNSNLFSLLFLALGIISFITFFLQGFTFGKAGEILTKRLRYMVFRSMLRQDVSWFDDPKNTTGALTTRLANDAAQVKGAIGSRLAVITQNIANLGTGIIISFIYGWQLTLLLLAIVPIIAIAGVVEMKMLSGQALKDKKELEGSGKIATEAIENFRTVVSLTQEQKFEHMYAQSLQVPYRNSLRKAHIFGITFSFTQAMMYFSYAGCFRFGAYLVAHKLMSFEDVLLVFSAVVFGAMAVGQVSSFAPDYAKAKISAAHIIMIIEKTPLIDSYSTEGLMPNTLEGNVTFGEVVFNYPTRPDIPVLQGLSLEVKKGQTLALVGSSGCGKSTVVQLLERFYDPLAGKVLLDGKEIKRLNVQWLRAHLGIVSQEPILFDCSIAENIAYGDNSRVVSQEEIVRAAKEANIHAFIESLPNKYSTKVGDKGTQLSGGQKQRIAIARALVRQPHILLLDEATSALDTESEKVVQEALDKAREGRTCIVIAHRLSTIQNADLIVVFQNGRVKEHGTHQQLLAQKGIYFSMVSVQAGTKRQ

[11] = test system: human PDE4 phosphodiesterase; design: dose or concentration left out as unconfirmed; conditions: cited from earlier work
[12] = biological target: human neurotransmitter dopamine transporter (Homo sapiens, UniProt Q01959); design: dose or concentration left out as unconfirmed; conditions: cited from earlier work
Chain of human neurotransmitter dopamine transporter (Q01959 whole entry): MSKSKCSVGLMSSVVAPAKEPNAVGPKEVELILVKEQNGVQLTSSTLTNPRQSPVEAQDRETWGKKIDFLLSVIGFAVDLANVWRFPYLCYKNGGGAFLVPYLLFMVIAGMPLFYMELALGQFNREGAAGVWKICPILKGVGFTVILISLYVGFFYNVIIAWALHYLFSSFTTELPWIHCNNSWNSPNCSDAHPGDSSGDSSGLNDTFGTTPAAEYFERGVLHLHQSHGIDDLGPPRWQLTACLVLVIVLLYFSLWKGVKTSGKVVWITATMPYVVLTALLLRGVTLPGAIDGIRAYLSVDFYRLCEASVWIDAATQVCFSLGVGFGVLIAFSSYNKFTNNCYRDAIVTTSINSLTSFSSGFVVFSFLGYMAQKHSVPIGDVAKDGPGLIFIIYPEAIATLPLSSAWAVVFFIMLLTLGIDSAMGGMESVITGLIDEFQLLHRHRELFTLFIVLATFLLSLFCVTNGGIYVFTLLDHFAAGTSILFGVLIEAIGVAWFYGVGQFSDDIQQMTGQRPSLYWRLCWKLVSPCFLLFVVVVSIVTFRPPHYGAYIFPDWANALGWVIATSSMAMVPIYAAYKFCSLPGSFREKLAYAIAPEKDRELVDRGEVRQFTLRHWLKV

[13] = rats, cited from earlier work
[14] = dogs, cited from earlier work
[15] = cited from earlier work; remark: listed apart in the source
[16] = exposures exceeding the predicted efficacious concentration

Structure (SMILES): CC1=C2C[C@H]3[C@@H](CC[C@@H]4C[C@H](NS(C)(=O)=O)CC[C@@]43C)[C@@H]2CC[C@@]2(C1)O[C@@H]1C[C@H](C)CN[C@H]1[C@H]2C [IPI-926]
- stroma, tumor vascularization and effect of Gem chemotherapy (Smo): selective stromal elimination, better tumor vascularization, and greater effect of Gem chemotherapy

Structure (SMILES): CCc1cc2c(c(OCC(F)(F)F)c(C(=O)NC3CCN(C(=O)CO)CC3)n2C)c(=O)n1CC(=O)c1ccccc1 [TAK-441, 6-ethyl-N-[1-(hydroxyacetyl)piperidin-4-yl]-1-methyl-4-oxo-5-(2-oxo-2-phenylethyl)-3-(2,2,2-triflurorethoxy)-4,5-dihydro-1H-pyrrolo[3,2-c]pyrdine-2-carboxamide]
- TGI (%) day 21 (1 − [Tf − Ti]/[Cf − Ci]) (Panc163): 61%
- TGI (%) day 21 (1 − [Tf − Ti]/[Cf − Ci]) (JH051): 15%
- TGI (%) day 21 (1 − [Tf − Ti]/[Cf − Ci]) (Panc025): 42%
- IC50 (human Smo (hSmo)): 8.6 nM
- IC50 [1]: 4.4 nM
- IC50 (Gli1 mRNA): 1.9 nM
- Gli1 mRNA expression in tumor-associated stromal tissue ([2]; Ohashi et al.): suppressed
- expression of Gli1 mRNA in vivo ([2]; medulloblastoma allograft, mouse tumor): dose-dependent inhibition
- tumor activity ([2]; medulloblastoma allograft, p<0.025): significant dose-dependent tumor activity
- tumor growth treatment/control ratio ([2]; mouse medulloblastoma allograft model): 3%
- expression of Gli1 mRNA in vivo ([3]; stromal tumor associated): dose-dependent inhibition
- tumor activity ([3]; p<0.025): significant dose-dependent tumor activity
- tumor progression / paracrine Hh ligand signaling [4]: inhibit tumor progression
- CL [5]: 0.1613 L/h/kg
- distribution volume in steady state plasma (Vss) [5]: 0.6816 L/kg
- t % [5]: 1.7 h
- CL ([6]; dogs): 0.3979 L/h/kg
- distribution volume in steady state plasma (Vss) ([6]; dogs): 2.1813 L/kg
- t % ([6]; dogs): 9.8 h
- increase of degree of absorption, fed versus fasting (Cmax and AUC0-24 h) ([6]; fed dogs compared with fasting dogs): approximately 2 times
- binding to plasma proteins [7]: 99.7%
- binding to plasma proteins [8]: 96.2%
- binding to plasma proteins [9]: 79.6%
- binding to plasma proteins [10]: 87.7%
- CYP2C8 inhibition (CYP2C8): weak inhibitor
- inhibitory effect on other CYP isozymes (CYP isozymes): no inhibitory effect
- time-dependent inhibition of CYP isoenzyme (CYP isozymes; human liver microsomes): not a time-dependent inhibitor
- Papp, A-to-B (Caco-2 cells): 19.6 '10-6 cm/sec
- substrate for P-glycoprotein (P-gp) flow pump (P-glycoprotein (P-gp)): bad substrate
- inhibition of human PDE4 phosphodiesterase [11]: 67%
- inhibition of human dopamine transporter [12]: 75%
- other findings of unknown relevance to humans [13]: gait alterations and tremors
- toxicological changes [13, 16]: decreased body weight; atrophy of the growth plate in the ribs and hair follicles; erosion or ulceration of the gastric mucosa; anemia; necrosis and hypocellularity of the bone marrow as well as inflammation and hemorrhage in the lung
- dose-limiting toxicities [14]: weight loss; decrease in food consumption; injuries of the gastrointestinal tract
- toxicological changes [14, 16]: decreased body weight; atrophy of the growth plate in the ribs and hair follicles; erosion or ulceration of the gastric mucosa; anemia; necrosis and hypocellularity of the bone marrow as well as inflammation and hemorrhage in the lung
- clinical response ([15]; a patient with basal cell carcinoma): partial response
- mean Tmax ([15]; after a single dose): 1.8 to 4.2 h
- mean Tmax ([15]; after several doses): 2.4 to 4.0 h
- pharmacokinetics based on plasma concentration-time AUC ([15]; dose range 50-1600 mg): linear over the entire dose range
- dose-limiting toxicities ([15]; patients): muscle spasms and fatigue
- inhibition of Gli1 gene expression in skin biopsies ([15]; patients): observed with all doses analyzed
- median elimination half-life ([15]; patients): 12.9 to 18.3 h
- tolerability ([15]; patients): well-tolerated
